Measurements: PMC10867458, “Depolymerization of actin filaments by Cucurbitacin I through binding G‐actin” (Food Science & Nutrition, 2023)
Read-outs that look alike come from different tables or passages of the source.

Legend:
[1] = biological target: T1, G-actin (rabbit skeletal muscle actin) (Oryctolagus cuniculus, UniProt P68135); test: pyrene-actin polymerization assay, […] (V50 […] vs control […]); assay type: biochemical
T1 construct: gene ACTA1

[2] = biological target: T1, G-actin (rabbit skeletal muscle actin); test: differential scanning fluorimetry (SYPRO orange) with Kd; also pyrene-actin polymerization inhibition; assay type: binding
[3] = biological target: T1, G-actin (rabbit skeletal muscle actin); test: pyrene-actin polymerization assay, […] (V50 […] vs control […]); assay type: biochemical; remark: listed apart in the source

Compound: C=C1[C@@H](C)[C@H]2[C@H](Cc3ccccc3)NC(=O)[C@]23[C@H](OC(C)=O)/C=C/[C@@](C)(O)C(=O)[C@@H](C)C/C=C/[C@H]3[C@@H]1O [Cytochalasin D]
- V 50 [1]: 77.59 ± 7776

Compound: CC(C)(O)/C=C/C(=O)[C@](C)(O)[C@H]1[C@H](O)C[C@@]2(C)[C@@H]3CC=C4[C@@H](C=C(O)C(=O)C4(C)C)[C@]3(C)C(=O)C[C@]12C [CuI, Cucurbitacin I]
- Kd [2]: 30 ± 2.5 nM

Compound: C/C1=C\[C@H](C)C[C@H](C)OC(=O)C[C@H](c2ccc(O)cc2)NC(=O)[C@@H](Cc2c(Br)[nH]c3ccccc23)N(C)C(=O)[C@H](C)NC(=O)[C@@H](C)C1 [Jasplakinolide]
- V 50 [3]: 54.7 ± 5114
